Tests used:
[1] = Repeated administration: feed intake in DIO mice; assay type: in vivo, Mouse, C57BL/6J-DIO; parameters: unit not given here
Method: (§1) In addition, after administering the test substances into mice, the daily feed intake was measured, and the feeding amount was measured using an electronic scale for each breeding box, and the remaining amount was measured to calculate the daily feed intake. In case of an individual that gnawed heavily on heed, it was excluded from the measurement.
(§2) All the experimental results obtained in the present example were expressed as mean±standard error and tested using Prism5 (version 5.01). One-way analysis of variance (ANOVA) was performed on all data, and when significance was observed, Dunnett's test was performed to find out the test groups with a significant difference from the control group (significance level: two-sided 5% and 1%, 0.1%).
Except for the administration dose, animal number and administration cycle, most of the test processes were the same as in Example 2.1.1 above.
The test substances were administered twice a week (Days 0, 4, 7, 11, 14, 18, 21, 25) for a total of 8 times. For comparison, the control group in which the control substance Semaglutide was administered every day was prepared, and the comparison group in which Semaglutide was administered every day was administered once a day daily, and all the administration was progressed from 9 AM.

[2] = Single administration: feed intake in DIO mice; assay type: in vivo, Mouse, C57BL/6J-DIO; parameters: unit not given here
Method: The pharmacological effect of the fusion polypeptides produced and purified in Example 1 above was tested in mice (C57BL/6J, 6-week-old, male, 100 mice; Raonbio).
In the present example, DI0 mouse model (Mouse, C57BL/6J-DIO, male, 100 mice, 14-week-old (obesity feed feeding for 8 weeks)) in which obesity was induced by feeding a high-fat diet into the C57BL/6J mice for 8 weeks was used.
The administration of the test substances HT-ID1-GDF15, HT-ID2-GDF15, and HT-ID3-GDF15 and the control substance Semaglutide (Bachem) was conducted from the next day after group separation, and the administration time was performed at 9 AM every day. Subcutaneous administration was conducted for all the control substance and test substances. For the administration route of the control substance and test substances, subcutaneous administration was selected depending on the clinically scheduled administration route.
For all the control substance and test substances, the amount of the administration solution was set to 5 mL/kg and the administration liquid by individual was calculated on the basis of the recently measured body weight and it was administered by subcutaneous injection once on the start day of the test using a disposable syringe (1 mL). The test substances were administered only once. For comparison, the control group in which the control substance Semaglutide was administered was prepared, and the comparison group in which Semaglutide was administered was administered once a day, and all the administration was progressed from 9 AM.
as §1, §2

HT-ID3-GDF15: Fusion polypeptide: His-Tag, TEV cleavage site, three IgD hinges, GS linker, GDF15 (SEQ ID NO: 3)
Feed intake, Mean ([1]; Day 1, 3 nmol/kg twice a week): 2.9
Feed intake, Mean ([1]; Day 1, 10 nmol/kg twice a week): 2.9
Feed intake, Mean ([1]; Day 1, 30 nmol/kg twice a week): 2.5
Feed intake, Mean ([1]; Day 2, 3 nmol/kg twice a week): 1.5
Feed intake, Mean ([1]; Day 2, 10 nmol/kg twice a week): 1.7
Feed intake, Mean ([1]; Day 2, 30 nmol/kg twice a week): 1.6
Feed intake, Mean ([1]; Day 3, 3 nmol/kg twice a week): 1.9
Feed intake, Mean ([1]; Day 3, 10 nmol/kg twice a week): 2.3
Feed intake, Mean ([1]; Day 3, 30 nmol/kg twice a week): 2.1
Feed intake, Mean ([1]; Day 4, 3 nmol/kg twice a week): 1.9
Feed intake, Mean ([1]; Day 4, 10 nmol/kg twice a week): 2.2
Feed intake, Mean ([1]; Day 4, 30 nmol/kg twice a week): 2.2
Feed intake, Mean ([1]; Day 5, 3 nmol/kg twice a week): 2.0
Feed intake, Mean ([1]; Day 5, 10 nmol/kg twice a week): 2.1
Feed intake, Mean ([1]; Day 5, 30 nmol/kg twice a week): 2.3
Feed intake, Mean ([1]; Day 6, 3 nmol/kg twice a week): 1.6
Feed intake, Mean ([1]; Day 6, 10 nmol/kg twice a week): 1.9
Feed intake, Mean ([1]; Day 6, 30 nmol/kg twice a week): 1.8
Feed intake, Mean ([1]; Day 7, 3 nmol/kg twice a week): 2.1
Feed intake, Mean ([1]; Day 7, 10 nmol/kg twice a week): 2.2
Feed intake, Mean ([1]; Day 7, 30 nmol/kg twice a week): 2.2
Feed intake, Mean ([1]; Day 8, 3 nmol/kg twice a week): 2.1
Feed intake, Mean ([1]; Day 8, 10 nmol/kg twice a week): 2.1
Feed intake, Mean ([1]; Day 8, 30 nmol/kg twice a week): 2.1
Feed intake, Mean ([1]; Day 9, 3 nmol/kg twice a week): 1.9
Feed intake, Mean ([1]; Day 9, 10 nmol/kg twice a week): 2.1
Feed intake, Mean ([1]; Day 9, 30 nmol/kg twice a week): 2.0
Feed intake, Mean ([1]; Day 10, 3 nmol/kg twice a week): 2.4
Feed intake, Mean ([1]; Day 10, 10 nmol/kg twice a week): 2.4
Feed intake, Mean ([1]; Day 10, 30 nmol/kg twice a week): 2.5
Feed intake, Mean ([1]; Day 11, 3 nmol/kg twice a week): 2.5
Feed intake, Mean ([1]; Day 11, 10 nmol/kg twice a week): 3.0
Feed intake, Mean ([1]; Day 11, 30 nmol/kg twice a week): 2.9
Feed intake, Mean ([1]; Day 12, 3 nmol/kg twice a week): 3.9
Feed intake, Mean ([1]; Day 12, 10 nmol/kg twice a week): 4.1
Feed intake, Mean ([1]; Day 12, 30 nmol/kg twice a week): 4.0
Feed intake, Mean ([1]; Day 13, 3 nmol/kg twice a week): 2.9
Feed intake, Mean ([1]; Day 13, 10 nmol/kg twice a week): 2.5
Feed intake, Mean ([1]; Day 13, 30 nmol/kg twice a week): 2.1
Feed intake, Mean ([1]; Day 14, 3 nmol/kg twice a week): 3.2
Feed intake, Mean ([1]; Day 14, 10 nmol/kg twice a week): 3.3
Feed intake, Mean ([1]; Day 14, 30 nmol/kg twice a week): 3.0
Feed intake, Mean ([1]; Day 15, 3 nmol/kg twice a week): 3.1
Feed intake, Mean ([1]; Day 15, 10 nmol/kg twice a week): 3.2
Feed intake, Mean ([1]; Day 15, 30 nmol/kg twice a week): 3.1
Feed intake, Mean ([1]; Day 16, 3 nmol/kg twice a week): 2.7
Feed intake, Mean ([1]; Day 16, 10 nmol/kg twice a week): 2.2
Feed intake, Mean ([1]; Day 16, 30 nmol/kg twice a week): 1.9
Feed intake, Mean ([1]; Day 17, 3 nmol/kg twice a week): 3.0
Feed intake, Mean ([1]; Day 17, 10 nmol/kg twice a week): 3.3
Feed intake, Mean ([1]; Day 17, 30 nmol/kg twice a week): 3.0
Feed intake, Mean ([1]; Day 18, 3 nmol/kg twice a week): 3.1
Feed intake, Mean ([1]; Day 18, 10 nmol/kg twice a week): 3.3
Feed intake, Mean ([1]; Day 18, 30 nmol/kg twice a week): 3.2
Feed intake, Mean ([1]; Day 19, 3 nmol/kg twice a week): 3.3
Feed intake, Mean ([1]; Day 19, 10 nmol/kg twice a week): 3.4
Feed intake, Mean ([1]; Day 19, 30 nmol/kg twice a week): 3.3
Feed intake, Mean ([1]; Day 20, 3 nmol/kg twice a week): 2.7
Feed intake, Mean ([1]; Day 20, 10 nmol/kg twice a week): 2.4
Feed intake, Mean ([1]; Day 20, 30 nmol/kg twice a week): 1.9
Feed intake, Mean ([1]; Day 21, 3 nmol/kg twice a week): 3.0
Feed intake, Mean ([1]; Day 21, 10 nmol/kg twice a week): 3.1
Feed intake, Mean ([1]; Day 21, 30 nmol/kg twice a week): 3.1
Feed intake, Mean ([1]; Day 22, 3 nmol/kg twice a week): 3.1
Feed intake, Mean ([1]; Day 22, 10 nmol/kg twice a week): 3.2
Feed intake, Mean ([1]; Day 22, 30 nmol/kg twice a week): 3.4
Feed intake, Mean ([1]; Day 23, 3 nmol/kg twice a week): 2.9
Feed intake, Mean ([1]; Day 23, 10 nmol/kg twice a week): 2.7
Feed intake, Mean ([1]; Day 23, 30 nmol/kg twice a week): 2.3
Feed intake, Mean ([1]; Day 24, 3 nmol/kg twice a week): 3.1
Feed intake, Mean ([1]; Day 24, 10 nmol/kg twice a week): 3.1
Feed intake, Mean ([1]; Day 24, 30 nmol/kg twice a week): 3.3
Feed intake, Mean ([1]; Day 25, 3 nmol/kg twice a week): 2.9
Feed intake, Mean ([1]; Day 25, 10 nmol/kg twice a week): 3.3
Feed intake, Mean ([1]; Day 25, 30 nmol/kg twice a week): 3.2
Feed intake, Mean ([1]; Day 26, 3 nmol/kg twice a week): 3.0
Feed intake, Mean ([1]; Day 26, 10 nmol/kg twice a week): 3.3
Feed intake, Mean ([1]; Day 26, 30 nmol/kg twice a week): 3.2
Feed intake, Mean ([1]; Day 27, 3 nmol/kg twice a week): 2.8
Feed intake, Mean ([1]; Day 27, 10 nmol/kg twice a week): 2.7
Feed intake, Mean ([1]; Day 27, 30 nmol/kg twice a week): 2.2
Feed intake, Mean ([1]; Day 28, 3 nmol/kg twice a week): 2.7
Feed intake, Mean ([1]; Day 28, 10 nmol/kg twice a week): 3.2
Feed intake, Mean ([1]; Day 28, 30 nmol/kg twice a week): 3.2
Feed intake, Mean ([2]; Day 0, 10 nmol/kg Single Inj.): 3.2
Feed intake, Mean ([2]; Day 1, 10 nmol/kg Single Inj.): 2.0
Feed intake, Mean ([2]; Day 2, 10 nmol/kg Single Inj.): 2.5
Feed intake, Mean ([2]; Day 3, 10 nmol/kg Single Inj.): 2.3
Feed intake, Mean ([2]; Day 4, 10 nmol/kg Single Inj.): 2.3
Feed intake, Mean ([2]; Day 5, 10 nmol/kg Single Inj.): 2.7
Feed intake, Mean ([2]; Day 6, 10 nmol/kg Single Inj.): 2.8
Feed intake, Mean ([2]; Day 7, 10 nmol/kg Single Inj.): 3.3
Feed intake, Mean ([2]; Day 8, 10 nmol/kg Single Inj.): 3.3
Feed intake, Mean ([2]; Day 9, 10 nmol/kg Single Inj.): 3.6

— patent publication US20230133672A1, “FUSION POLYPEPTIDE COMPRISING GDF15 AND POLYPEPTIDE REGION CAPABLE OF O-GLYCOSYLATION” (LG CHEM, LTD., priority 2019, published 2023)
